Experimental data from patent US8952025B2, “Multifunctional radical quenchers and their uses” (Arizona Board of Regents, A Body Corporate of the State of …, priority 2010, dated 2015).

What was measured:
cultured FRDA cells = assay: Cytoprotection of cultured FRDA cells depleted of glutathione; format: cell-based; conditions: pretreated then depleted of glutathione, read-out: Viable Cells (%)
Source text: The cells were pretreated with the compounds and then depleted of glutathione. The cell viability is expressed as percentage of total number of cells.

[1] = system: NADH oxidase, bovine heart mitochondrial complex (I, III, IV); assay: NADH oxidase inhibition assay, submitochondrial particles; format: biochemical
Protocol: Beef heart mitochondria were obtained by a large-scale procedure. Inverted submitochondrial particles (SMP) were prepared by the method of Matsuno-Yagi and Hatefi (J. Biol. Chem. 260 (1985), p. 14424), and stored in a buffer containing 0.25 M sucrose and 10 mM Tris-HCl (pH 7.4) at −80° C. Inhibitory effects of compounds on bovine heart mitochondrial complex (I, III, IV) were evaluated. Maximal dimethyl sulfoxide concentration never exceeded 2% and had no influence on the control enzymatic activity. Beef heart SMP were diluted to 0.5 mg/mL. The enzymatic activities were assayed at 30° C. and monitored spectrophotometrically with a Beckman Coulter DU-530 (340 nm, c=6.22 mM^−1 cm^−1). NADH oxidase activity was determined in a reaction medium (2.5 mL) containing 50 mM Hepes, pH 7.5, containing 5 mM MgCl2. The final mitochondrial protein concentration was 30 μg. After the pre-equilibration of SMP with inhibitor for 5 min, the initial rates were calculated from the linear portion of the traces.
The activity is expressed as percentage of control.

[2] = system: CoQ10 deficient lymphocyte cell line; assay: Total intracellular ATP concentration assay (luciferin-luciferase); format: cell-based, human; conditions: 48 h, glucose free media with galactose
Source text: The reductions of mitochondrial respiratory chain activity in CoQ10 deficient patients have been reported (Quinzii G M, Lopez L C, Von-Moltke J, Naini A, Krishna S, Schuelke M, Salviati L, Navas P, DiMauro S, and Hirano, M. Respiratory chain dysfunction and oxidative stress correlate with severity of primary CoQ10 deficiency. FASEB J. 2008; 22:1874-1885). The use of CoQ10 analogues to normalize and restore the respiratory chain activities could provide valuable therapeutic approach. We have evaluated the efficiency of oxidative phosphorylation in CoQ10 deficient lymphocyte (GM17932) in presence of tested CoQ10 analogues by measuring total cellular ATP content using (ViaLight® Plus ATP monitoring reagent kit, Lonza).
CoQ10 deficient lymphocyte and normal lymphocyte cell lines were obtained from Coriell Cell Repositories (Camden, N.J.; catalog number GM-17932, GM-158151, respectively). CoQ10 deficient lymphocytes were cultured under glucose-free media supplemented with galactose for two weeks to force energy production predominantly through oxidative phosphorylation rather than glycolysis (Quinzii et al.; Robinson B H, Petrova-Benedict R, Buncic J R, Wallace D C. Nonviability of cells with oxidative defects in galactose medium: A screening test for affected patient fibroblast. Biochem. Med. Metab. Biol. 1992; 48:122-126). Lymphocytes were cultured in RPMI 1640 medium glucose-free (Gibco, Grand Island, N.Y.) supplemented with 25 mM galactose, 2 mM glutamine and 1% penicillin-streptomycin (Cellgro), and 10%, dialyzed fetal bovine serum FBS 0.5 μg/mL) (GEMINI, Bio-Product), Briefly, lymphocytes (2×10^5 cell/mL), were plated (1 mL in 12-well plates) and treated with the test compounds at final concentrations of 5, 10 μM, and 25 μM and incubated at 37° C. for 48 h in a humidified atmosphere containing 5% CO2 in air. The test compounds were prepared by first making 20 mM stock solutions in DMSO. Cells were transferred (100 μL) to 96-well microtiter black-walled cell culture plates (Costar, Corning, N.Y.). The total intracellular ATP level was measured in a luminator (Clarity™ luminescence microplate reader) with the ATP Bioluminescence Assay Kit (ViaLight® Plus ATP monitoring reagent kit, Lonza) following the manufacturer's instructions. The standard curve of ATP was obtained by serial dilution of 1 mM ATP solution. After calibration against the ATP standard, the ATP content of the cell extract was determined and normalized for protein content in the cell.
To enforce the respiratory chain-dependent ATP synthesis, cells were grown for 48 hours in glucose free media supplemented with 25 mM galactose and 10% dialyzed fetal bovine serum (glucose concentration less than 0.5 μg/mL). FIG. 20 illustrates total intracellular ATP levels in CoQ10 deficient and normal lymphocytes measured using the luciferin-luciferase reaction. The levels of ATP shown in Table 1 are relative to the 100% value obtained for the CoQ10 deficient cells in FIG. 20.

| Compound | viability at 0.1 µM (cultured FRDA cells) | viability at 0.5 µM (cultured FRDA cells) | viability at 2.5 µM (cultured FRDA cells) | NADH oxidase activity (%) ([1]; 1 μM, percentage of control) | IC50 ([1]; beef heart SMP) | Total ATP concentration (% of control) ([2]; 5 μM) | Total ATP concentration (% of control) ([2]; 10 μM) | Total ATP concentration (% of control) ([2]; 25 μM) |
| --- | --- | --- | --- | --- | --- | --- | --- | --- |
| COc1cc(N(C)C)nc(CCCCCCCCCCO)c1O | 33 ± 4.2% | 28.3 ± 2.1% | 29.5 ± 2.1% |  |  |  |  |  |
| CCCCCCCCCCc1nc(N2C(C)CCC2C)nc(C)c1O (centres unmarked) |  |  |  | 40% | 10.7 µM |  |  |  |
| Cc1nc(N(C)C)nc(CCCCCCCCCCO)c1O [drawing 116] |  |  |  |  |  | 102.4 ± 1.2 % of control | 87.9 ± 4.3 % of control | 46.1 ± 1.2 % of control |
| COc1nc(N(C)C)nc(CCCCCCCCCCO)c1O [drawing 117] |  |  |  |  |  | 101.6 ± 1.4 % of control | 96.8 ± 4.0 % of control | 48.7 ± 0.8 % of control |
| CCCCCc1nc(N(C)C)nc(C)c1O [drawing 118] |  |  |  |  |  | 109.3 ± 2.3 % of control | 111.1 ± 1.5 % of control | 105.6 ± 2.4 % of control |
| CCCCCCCCCCc1nc(N(C)C)nc(C)c1O [drawing 119] |  |  |  |  |  | 106.6 ± 2.7 % of control | 98.7 ± 1.1 % of control | 75.3 ± 1.8 % of control |
| CCCCCCCCCCCCCCCCc1nc(N(C)C)nc(C)c1O [drawing 120] |  |  |  |  |  | 111.5 ± 1.8 % of control | 106.9 ± 2.7 % of control | 101.6 ± 3.1 % of control |
| CCCCCCCCCCc1nc(N(C)C)nc(OC)c1O [drawing 121] |  |  |  |  |  | 109.4 ± 5.0 % of control | 110.5 ± 6.5 % of control | 68.3 ± 2.7 % of control |
| CCCCCCCCCCCCCCCCc1nc(N(C)C)nc(OC)c1O [drawing 122] |  |  |  |  |  | 122.3 ± 1.9 % of control | 116.4 ± 0.5 % of control | 113.0 ± 1.6 % of control |
| Cc1nc(N(C)C)nc(CCCCCCCCCCO)c1O [drawing 123] | 63.6 ± 8.4% | 83.5 ± 0.7% | 82.7 ± 8.1% |  |  |  |  |  |
| Cc1cc(N(C)C)nc(CCCCCCCCCCO)c1O [drawing 124] | 54 ± 5.2% | 76.5 ± 2.1% | 81.7 ± 5% |  |  |  |  |  |
| COc1nc(N(C)C)nc(CCCCCCCCCCO)c1O [drawing 125] | 55.6 ± 5.7% | 80 ± 4% | 78.3 ± 7.5% |  |  |  |  |  |
| CCCCCc1nc(N(C)C)nc(C)c1O [drawing 127] | 46 ± 3.5% | 78.7 ± 4% | 81.3 ± 5.1% |  |  |  |  |  |
